These results are taken from patent publication EP1900728A1 (Genecare Research Institute Co., Ltd, priority 2005, dated 2006).

The test has as its target T1, IκBα ubiquitinating enzyme (SCF complex: ROC1, Cullin1, Skp1, His-TrCP1; with E1, UbcH5b) (Homo sapiens, UniProt P62877+P63208+Q13616+Q9Y297).
T1 construct: His (polyhistidine); made in house; host or cells: insect cells (baculovirus) for the SCF complex and His-E1; E. coli for His-UBCH5b
Briefly: Measurement of ubiquitinating enzyme activity (IκBα ubiquitination, time-resolved fluorescence with Eu(K)-labeled ubiquitin and XL665-labeled anti-GST antibody). Format: biochemical. As to conditions: enzyme activity inhibition test, method (1), Table 5; read-out: EVALUATION
The protocol:
Method 1: Measurement of ubiquitinating enzyme activity
A recombinant vector His-UBCH5b containing a polyhistidine tag (His) and UBCH5b was prepared. E. coli was transformed with the vector, the protein was expressed, and affinity purification was carried out using Ni-NTA agarose (Qiagen). Four types of recombinant baculoviruses (ROC1, Cullin1, Skp1, and His-TrCP1) were prepared for the SCF complex protein, insect cells were infected in quadruplicate for expression, and affinity purification was carried out using Ni-NTA agarose. Recombinant baculoviruses His-IKKβ, His-E1 were prepared. The insect cells were infected with each of those for expression, and affinity purification was carried out using Ni-NTA agarose. A recombinant vector GST-IκBα was prepared by fusing glutathione-S-transferase tag (GST) and IκBα, E. coli was transformed with the vector for the protein expression, and affinity purification was carried out using glutathione sepharose (Amersham Biosciences). Genetic transformants were prepared by PCR amplification followed by recombination, all of which were based on published human-derived sequences.
Phosphorylation reaction of IκBα was performed by incubating the above-mentioned assay buffer (50 mM Tris-HCl (pH7.4), 2 mM ATP, 5 mM MgCl2, 0.5 mM DTT, 0.1% BSA) containing IκBα and IKKβ at room temperature for 1 hour. Ubiquitination reactions were carried out as follows. Compound samples at various concentrations, ubiquitin, Eu (K)-labeled ubiquitin, E1, UbcH5b, and SCF complex were added to phosphorylated IκBα, and then this was incubated at room temperature for 30 minutes. The reaction was terminated by adding EDTA, the above-mentioned revelation buffer (100 mM phosphate buffer (pH7.0), 0.5 M KF, 0.1% BSA) containing XL665-labeled anti-GST antibody was added and this was left to stand at room temperature for 2 hours. Measurements were made using ARVO-HTS (Perkin Elmer). The ratio of fluorescence intensities at 620 nm and 665 nm (Em 665 nm/Em 620 nm x 10,000) with excitation light at 337 nm was measured.
The ubiquitination level without the addition of a compound sample was used as the control value, and the level in the absence of SCF complex was used as the blank value for the assays. Inhibitory activities of the compounds were indicated as % inhibition = 100 - (value with a compound sample added - blank value) / (control value - blank value) x 100. IC50 was indicated as the concentration of the compound showing 50% inhibition. Eu (K)-labeled ubiquitin, XL665-labeled anti-GST antibody, and XL665-labeled anti-His antibody were purchased from CIS bio international. Costar solid black plates (96 wells) were used for the assays.

Bounds are passed on as bounds.

T1 sequence (Q9Y297 whole entry): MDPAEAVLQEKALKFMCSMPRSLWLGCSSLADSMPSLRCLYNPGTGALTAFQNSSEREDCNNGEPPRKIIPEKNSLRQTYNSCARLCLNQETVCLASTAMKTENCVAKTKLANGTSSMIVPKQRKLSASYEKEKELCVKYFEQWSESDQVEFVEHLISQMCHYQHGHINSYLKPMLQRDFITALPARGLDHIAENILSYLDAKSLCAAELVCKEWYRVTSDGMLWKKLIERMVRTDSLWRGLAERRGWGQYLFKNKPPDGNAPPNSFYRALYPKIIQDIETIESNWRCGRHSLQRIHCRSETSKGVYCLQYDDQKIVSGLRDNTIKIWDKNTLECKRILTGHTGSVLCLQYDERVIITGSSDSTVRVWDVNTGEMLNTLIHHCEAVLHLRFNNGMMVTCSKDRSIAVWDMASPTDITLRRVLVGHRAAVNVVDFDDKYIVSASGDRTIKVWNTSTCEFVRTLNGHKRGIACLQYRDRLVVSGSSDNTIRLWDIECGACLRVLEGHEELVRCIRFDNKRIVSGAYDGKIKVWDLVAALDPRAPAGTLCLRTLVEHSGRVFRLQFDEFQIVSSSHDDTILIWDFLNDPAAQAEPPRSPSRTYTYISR
T1 sequence (Q13616 whole entry): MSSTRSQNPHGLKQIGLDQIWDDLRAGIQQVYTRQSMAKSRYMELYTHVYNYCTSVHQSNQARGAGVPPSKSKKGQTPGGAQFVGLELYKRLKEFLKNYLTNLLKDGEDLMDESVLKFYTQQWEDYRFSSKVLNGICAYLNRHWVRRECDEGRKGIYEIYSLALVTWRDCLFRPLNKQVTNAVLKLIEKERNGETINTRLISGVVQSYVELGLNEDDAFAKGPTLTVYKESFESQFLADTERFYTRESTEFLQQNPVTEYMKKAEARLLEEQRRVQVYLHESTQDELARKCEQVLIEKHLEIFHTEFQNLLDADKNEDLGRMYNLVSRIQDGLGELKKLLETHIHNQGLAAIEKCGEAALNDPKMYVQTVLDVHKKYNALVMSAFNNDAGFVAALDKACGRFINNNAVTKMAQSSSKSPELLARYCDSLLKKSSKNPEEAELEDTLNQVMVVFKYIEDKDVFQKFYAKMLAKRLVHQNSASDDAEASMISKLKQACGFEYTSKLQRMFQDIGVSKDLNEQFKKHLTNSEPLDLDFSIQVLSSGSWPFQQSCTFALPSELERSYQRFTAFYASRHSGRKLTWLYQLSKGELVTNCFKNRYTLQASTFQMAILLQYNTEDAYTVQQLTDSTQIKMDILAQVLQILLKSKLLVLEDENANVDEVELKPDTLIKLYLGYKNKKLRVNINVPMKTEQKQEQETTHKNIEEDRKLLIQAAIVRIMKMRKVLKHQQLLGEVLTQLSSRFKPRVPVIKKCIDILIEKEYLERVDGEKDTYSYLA
T1 sequence (P63208 whole entry): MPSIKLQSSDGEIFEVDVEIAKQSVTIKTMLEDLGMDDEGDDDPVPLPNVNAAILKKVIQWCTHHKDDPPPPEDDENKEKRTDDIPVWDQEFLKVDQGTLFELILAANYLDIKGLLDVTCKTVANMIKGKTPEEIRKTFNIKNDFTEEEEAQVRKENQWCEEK
T1 sequence (P62877 whole entry): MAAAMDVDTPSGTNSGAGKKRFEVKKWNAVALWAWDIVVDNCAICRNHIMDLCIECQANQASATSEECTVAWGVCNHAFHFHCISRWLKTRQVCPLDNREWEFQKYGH

As to `COc1cc(/C=C2\C(=O)N(c3cccc(S(N)(=O)=O)c3)N=C2C)ccc1OCc1c(C)noc1C` [Compound 153], the IC50 is less than 40 µM. Take `CCOC(=O)c1ccc(COc2ccc(/C=C3\C(=O)N(c4cccc(S(N)(=O)=O)c4)N=C3C)cc2OC)o1` [Compound 155]: the IC50 is less than 40 µM. `COc1cc(/C=C2\C(=O)N(c3ccc(S(N)(=O)=O)cc3)N=C2C)ccc1OCn1nnc2ccccc21` [Compound 156]: the IC50 lay in the range of 10 to 20 µM. In the case of `COc1cc(/C=C2\C(=O)N(c3cccc(S(N)(=O)=O)c3)N=C2C)ccc1OCn1nnc2ccccc21` [Compound 157], the IC50 was 10 to 20 µM. In the case of `COc1cc(/C=C2\C(=O)N(c3ccc(S(N)(=O)=O)cc3)N=C2C)ccc1OCc1c(C)noc1C` [Compound 158], the IC50 is less than 40 µM. `COc1cc(/C=C2\C(=O)N(c3ccc(S(N)(=O)=O)cc3)N=C2C)ccc1OCC1CC1` [Compound 159]: the IC50 is 10 to 20 µM. With `COc1cc(/C=C2\C(=O)N(c3cccc(S(N)(=O)=O)c3)N=C2C)ccc1OCC1CC1` [Compound 160] the figure was less than 40 µM; with `COc1cc(C=C2C(=O)N(c3ccc(S(N)(=O)=O)cc3)N=C2C)ccc1OCC1CCCCC1` [Compound 161], less than 40 µM; with `CC1=NN(c2ccc(S(=O)(=O)N3CCC(O)CC3)cc2)C(=O)/C1=C\c1ccc2c(c1)OCO2` [Compound 162], less than 40 µM. With `CC1=NN(c2cccc(S(N)(=O)=O)c2)C(=O)/C1=C\c1ccc(N2CCN(c3ccccc3)CC2)cc1` [Compound 170] the figure was less than 10 µM; with `CC1=NN(c2ccc(S(N)(=O)=O)cc2)C(=O)/C1=C\c1ccc(N2CCC(CO)CC2)cc1` [Compound 171], 10 to 20 µM. In the case of `CC1=NN(c2ccc(S(N)(=O)=O)cc2)C(=O)C1=Cc1ccc(N2CCCC2CO)cc1` (centres unmarked) [Compound 172], the IC50 was less than 40 µM.

Consider `CC1=NN(c2cccc(S(N)(=O)=O)c2)C(=O)/C1=C\c1ccc(N2CCC(CO)CC2)cc1` [Compound 173], for which the IC50 is less than 40 µM.

Take `CC1=NN(c2cccc(S(N)(=O)=O)c2)C(=O)/C1=C\c1ccc(N2CCCC2CO)cc1` (centres unmarked) [Compound 174]: the IC50 was less than 40 µM. As for `CC1=NN(c2ccc(S(N)(=O)=O)cc2)C(=O)/C1=C\c1ccc(N2CCN(c3ccc(F)cc3)CC2)cc1` [Compound 176], the figure is less than 10 µM. As for `CC1=NN(c2cccc(S(N)(=O)=O)c2)C(=O)/C1=C\c1ccc(N2CCN(c3ccc(F)cc3)CC2)cc1` [Compound 177], the figure is 10 to 20 µM. With `CC1=NN(c2cccc(S(N)(=O)=O)c2)C(=O)/C1=C\c1ccc(N2CCC(O)C2)cc1` (centres unmarked) [Compound 178] the figure was less than 40 µM; with `CC1=NN(c2ccc(S(N)(=O)=O)cc2)C(=O)C1=Cc1ccc(N2CCNCC2)cc1` [Compound 183], 10 to 20 µM. `CC1=NN(c2cccc(S(N)(=O)=O)c2)C(=O)/C1=C\c1ccc(N2CCNCC2)cc1` [Compound 184]: the IC50 lay within 10 to 20 µM. In the case of `COc1cc(C=C2C(=O)N(c3ccc(C(C)(C)C)cc3)N=C2C)ccc1O` [Compound 196], the IC50 was less than 10 µM. With `COc1cc(/C=C2/C(=O)N(c3ccccc3F)N=C2C)ccc1O` [Compound 197], the IC50 is less than 40 µM. As for `COc1cc(/C=C2/C(=O)N(c3cccc(N)c3)N=C2C)ccc1O` [Compound 198], the figure is less than 40 µM.

As for `COc1cc(/C=C2\C(=O)N(c3cccc(S(N)(=O)=O)c3)N=C2C)ccc1OS(=O)(=O)c1ccc(C)cc1` [Compound 203], the IC50 was 10 to 20 µM. As for `CC1=NN(c2ccccc2)C(=O)/C1=C\c1ccc(OCC(=O)Nc2ccccc2)cc1` [Compound 205], the figure is less than 40 µM. With `CC1=NN(c2ccccc2)C(=O)/C1=C\c1ccc(OCC(=O)N(C)C)cc1` [Compound 206] the figure was less than 40 µM. With `CC1=NN(c2ccc(S(N)(=O)=O)cc2)C(=O)/C1=C\c1ccc(OCC(=O)N(C)C)cc1` [Compound 209] the figure was 10 to 20 µM; with `CC1=NN(c2ccccc2)C(=O)/C1=C\c1ccc(OCCCN(C)C)cc1` [Compound 217], less than 40 µM. As for `CC1=NN(c2ccc(S(N)(=O)=O)cc2)C(=O)/C1=C\c1ccccc1O` [Compound 219], the IC50 is less than 40 µM. On to `CC1=NN(c2ccc(S(N)(=O)=O)cc2)C(=O)/C1=C\c1ccc(OS(=O)(=O)c2ccc(C(C)(C)C)cc2)cc1` [Compound 221], for which the IC50 lay within 10 to 20 µM. As for `CC1=NN(c2ccc(S(N)(=O)=O)cc2)C(=O)C1=Cc1cccc(C(=O)O)c1` [Compound 222], the figure is 10 to 20 µM; as for `CC1=NN(c2ccc(S(N)(=O)=O)cc2)C(=O)/C1=C\c1ccc(C(=O)O)cc1` [Compound 223], 10 to 20 µM; as for `CC1=NN(c2ccc(S(N)(=O)=O)cc2)C(=O)C1=Cc1ccc(NC(=O)c2ccco2)cc1` [Compound 231], less than 10 µM. Regarding `COCC1=NN(c2ccc(C(=O)O)cc2)C(=O)C1=Cc1ccc(N2CCC(O)CC2)s1` [Compound 240], the IC50 is less than 40 µM. Take `COCC1=NN(c2ccc(C(=O)O)cc2)C(=O)/C1=C\c1ccc(N2CCN(C)CC2)cc1` [Compound 241]: the IC50 is less than 40 µM.

Regarding `O=C(O)c1ccc(N2N=C(c3ccoc3)C(=Cc3ccc(N4CCC(O)CC4)s3)C2=O)cc1` [Compound 251], the IC50 is less than 40 µM. As for `CC1=NN(c2ccc(C(=O)O)cc2)C(=O)/C1=C\c1nccs1` [Compound 257], the figure is less than 40 µM; as for `O=C(O)c1ccc(N2N=C(Cc3ccccc3)/C(=C/c3ccc4ccccc4c3)C2=O)cc1` [Compound 264], 10 to 20 µM; as for `O=C(O)c1ccc(N2N=C(Cc3ccccc3)/C(=C/c3ccc(N4CCCC4)cc3)C2=O)cc1` [Compound 269], 10 to 20 µM. Take `O=C(O)c1ccc(N2N=C(Cc3ccccc3)/C(=C/c3nccs3)C2=O)cc1` [Compound 270]: the IC50 was less than 40 µM. As for `O=C(O)c1ccc(N2N=C(Cc3ccccc3)/C(=C/c3ccc(-n4cccn4)cc3)C2=O)cc1` [Compound 275], the figure is 10 to 20 µM; as for `O=C(O)c1ccc(N2N=C(Cc3ccccc3)/C(=C/c3ccc(-n4cncn4)cc3)C2=O)cc1` [Compound 276], less than 40 µM. For the compound `COc1ccc(C2=NN(c3ccc(C(=O)O)cc3)C(=O)/C2=C\c2cccc3nccnc23)cc1OC` [Compound 278], the IC50 was less than 40 µM. As for `COc1ccc(C2=NN(c3ccc(C(=O)O)cc3)C(=O)/C2=C\c2ccc(-n3ccnc3)cc2)cc1OC` [Compound 282], the figure is less than 40 µM. Turning to `COc1ccc(C2=NN(c3ccc(C(=O)O)cc3)C(=O)C2=Cc2ccc(N3CCN(C)CC3)cc2)cc1OC` [Compound 285], the IC50 was 10 to 20 µM. With `COc1cc(/C=C2\C(=O)N(c3ccc(C(=O)O)cc3)N=C2c2ccncc2)ccc1O` [Compound 286] the figure was 10 to 20 µM; with `O=C(O)c1ccc(N2N=C(c3ccncc3)C(=Cc3ccc4c(c3)OCCO4)C2=O)cc1` [Compound 288], 10 to 20 µM.

In the case of `COc1cc(/C=C2\C(=O)N(c3ccc(C(=O)O)cc3)N=C2c2ccccn2)ccc1OCc1ccccc1` [Compound 289], the IC50 fell in the range of 10 to 20 µM. With `O=C(O)c1ccc(N2N=C(c3ccccn3)/C(=C/c3ccc4c(c3)OCCO4)C2=O)cc1` [Compound 292] the figure was 10 to 20 µM; with `O=C(O)c1ccc(N2N=C(c3ccccn3)/C(=C/c3ccc(N4CCC(O)CC4)s3)C2=O)cc1` [Compound 293], less than 40 µM.

Take `O=C(O)c1ccc(N2N=C(c3ccccn3)/C(=C/c3ccc(-n4cccn4)cc3)C2=O)cc1` [Compound 294]: the IC50 was less than 40 µM. As for `O=C(O)c1ccc(N2N=C(c3cccnc3)/C(=C/c3ccc(N4CCCC4)cc3)C2=O)cc1` [Compound 309], the figure is less than 40 µM; as for `O=C(O)c1ccc(N2N=C(c3cccnc3)/C(=C/c3ccc4c(c3)OCCO4)C2=O)cc1` [Compound 310], 10 to 20 µM; as for `O=C(O)c1ccc(N2N=C(C3CC3)/C(=C/c3ccc(-n4ccnc4)cc3)C2=O)cc1` [Compound 318], less than 10 µM. As for `COCC1=NN(c2ccc(C(=O)O)cc2)C(=O)/C1=C\c1cccc2nccnc12` [Compound 327], the figure is less than 10 µM; as for `O=C(O)c1ccc(N2N=C(c3ccoc3)/C(=C/c3ccc4c(c3)OCCO4)C2=O)cc1` [Compound 330], less than 10 µM.

With `CC1=NN(c2ccc(C(=O)O)cc2)C(=O)/C1=C\c1cccc2nccnc12` [Compound 331], the IC50 was in the range of 10 to 20 µM.
